Data published in patent US12559750B2, “Methods and compositions for treatment of polycystic kidney disease” (Regulus Therapeutics Inc., priority 2021, dated 2026).

Tested on: AMPA-R
Experiment: [3H]AMPA radioligand binding assay on rat brain synaptic membranes;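 also: competition binding in which test compounds at rising concentrations displace [3H]AMPA from AMPA-R on rat brain synaptic membranes, with reduced bound radioligand as read-out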

| IC50 (Experiment #2) [µM] | % Inhibition @ 0.1 uM (Experiment #2, 0.1 uM) [%] | % Inhibition @ 1 uM (Experiment #2, 1 uM) [%] | % Inhibition @ 10 uM (Experiment #2, 10 uM) [%] | % Inhibition @ 100 uM (Experiment #2, 100 uM) [%] | Sequence | further results |
| --- | --- | --- | --- | --- | --- | --- |
|  |  |  |  |  | AECETEGSTEAASGSCMAFCFUFUMUSCS (ACTGTAAGCACUUUC; S-cEt, 2'-MOE, 2'-F, 2'-OMe modifications; modified_base 3 OTHER; thymine; modified_base 5 OTHER; misc_feature 1..15 Synthetic: RG-NG-1018; modified_base 1..3 OTHER; 2'-O-methoxyethyl nucleoside; modified_base 4 OTHER; S-constrained ethyl nucleoside; modified_base 7..8 OTHER; modified_base 9 OTHER; 2'-O-methyl nucleoside; modified_base 10..12 OTHE) | IC50 (Experiment #3): > 100 µM; % Inhibition @ 0.1 uM (Experiment #3, 0.1 uM): 3%; % Inhibition @ 1 uM (Experiment #3, 1 uM): 8.1%; % Inhibition @ 10 uM (Experiment #3, 10 uM): 1%; % Inhibition @ 100 uM (Experiment #3, 100 uM): 12.3% |
| > 100 | −11.8 | 2.7 | 13 | 32.6 | AEGECMAFCFUFUMTEGE [RG-NG-1009] |  |
| 3.44 | 0.7 | 31.3 | 70.1 | 86.4 | AEGECMAFCFUFUMUSGS [RG-NG-1010] |  |
|  |  |  |  |  | AFGSCMAFCFUFUMUSGE [RG-NG-1023] | IC50 (Experiment #3): 3.12 µM; % Inhibition @ 0.1 uM (Experiment #3, 0.1 uM): 3.1%; % Inhibition @ 1 uM (Experiment #3, 1 uM): 25.6%; % Inhibition @ 10 uM (Experiment #3, 10 uM): 75.2%; % Inhibition @ 100 uM (Experiment #3, 100 uM): 95.3% |
|  |  |  |  |  | ALGLCLALCLTLTLTLGL [RG-NG-1006] | IC50 (Experiment #1): 2.77 µM; % Inhibition @ 0.1 uM (Experiment #1, 0.1 uM): 6.7%; % Inhibition @ 1 uM (Experiment #1, 1 uM): 35.3%; % Inhibition @ 10 uM (Experiment #1, 10 uM): 68.9%; % Inhibition @ 100 uM (Experiment #1, 100 uM): 93.9% |
| 2.56 | −2.2 | 30.6 | 78.5 | 94 | ALGLCMAFCFUFUMUSGS [RG-NG-1011] |  |
| > 100 | 2.9 | 6.5 | 15 | 1.9 | AMAMGLCLALCLUMTLUCM [RG-NG-1030] |  |
| > 100 | −4.3 | 1 | 2.7 | 16.7 | AMAMGLCLALCLUMTLUM [RG-NG-1031] |  |
| > 100 | 0.9 | 15.9 | 7 | 38.4 | AMGLCLALCLUMTLUCM [RG-NG-1029] |  |
| > 100 | −3.8 | −5.6 | 3.7 | 37.2 | ASASGSCMAFCFUFUMUS [RG-NG-1013] |  |
|  |  |  |  |  | ASCSTGSUSAASGSCMAFCFUFUMUSCS (ACTGUAAGCACUUUC; cEt at 1, 2, 4, 5, 7, 8, 14, 15, 2'-O-methyl at 9, 13, 2'-fluoro at 10, 11, 12, other sugars and backbone not given here) [RG-NG-1019] | IC50 (Experiment #3): > 100 µM; % Inhibition @ 0.1 uM (Experiment #3, 0.1 uM): 12.9%; % Inhibition @ 1 uM (Experiment #3, 1 uM): 17.2%; % Inhibition @ 10 uM (Experiment #3, 10 uM): 15.6%; % Inhibition @ 100 uM (Experiment #3, 100 uM): 21% |
| 56.6 | −22.4 | 13.6 | 22.1 | 59.6 | ASGECMAFCFUFUMTEGS [RG-NG-1008] |  |
| 2.56 | 9.9 | 38.5 | 69 | 88.3 | ASGLCMAFCFUFUMTLGS [RG-NG-1012] |  |
| 1.69 | 3.1 | 39.7 | 83.2 | 94.3 | ASGSCFAFCFUFUFUSGS [RG-NG-1007] |  |
|  |  |  |  |  | ASGSCMAFCFUFUMTEGE [RG-NG-1024] | IC50 (Experiment #3): > 100 µM; % Inhibition @ 0.1 uM (Experiment #3, 0.1 uM): −17%; % Inhibition @ 1 uM (Experiment #3, 1 uM): −4.7%; % Inhibition @ 10 uM (Experiment #3, 10 uM): 6.5%; % Inhibition @ 100 uM (Experiment #3, 100 uM): 35.2% |
| > 100 | 14.9 | −5.5 | 8.6 | 20.4 | ASGSCMAFCFUFUMUS [RG-NG-1014] |  |
|  |  |  |  |  | ASGSCMAFCFUFUMUSAM [RG-NG-1038] | IC50 (Table 8): 8.23 µM; % Inhibition @ Concentration 100 uM (Table 8 (3′-terminal nucleobase/sugar variants), 100 uM): 81.3%; % Inhibition @ Concentration 0.1 uM (Table 8, 0.1 uM): 17.9%; % Inhibition @ Concentration 1 uM (Table 8, 1 uM): 25.4%; % Inhibition @ Concentration 10 uM (Table 8, 10 uM): 47.4% |
